Test results from patent US20120129928A1, “Chlorine-Free Liquid Microbicide Treatment” (University of Georgia Research Foundation, Inc., priority 2010, published 2012).
Values joined by “and” are separate entries in the source; they are usually repeats but may differ in a detail not shown here. Identical values can stand only once. Like-named read-outs stand apart in the source and are kept apart here.

Tests used:
[1] = tested on: S. enteritidis; experiment: Reduction of S. enteritidis in water treated with organic acids and SDS; type: cell-based, Salmonella enteritidis
[2] = tested on: aerobic plate count; experiment: Aerobic plate counts (APC) on produce treated in a 4-L tank
[3] = tested on: S. typhimurium; experiment: S. typhimurium counts on produce (apples, celery, onions, cantaloupes) and in treatment solution, 4-L tank
[4] = tested on: yeasts and molds; experiment: Yeast and mold (Y&M) counts on produce and in treatment solution, 4-L tank
[5] = tested on: various yeast species; experiment: Effect of levulinic acids plus SDS at 21° C. on various yeast species; type: cell-based; conditions: for Yeast counts at min: 1: 1 min; for Yeast counts at min: 2: 2 min; for Yeast counts at min: 5: 5 min; for Yeast counts at min: 10: 10 min; for Yeast counts at min: 20: 20 min; for Yeast counts at min: 30: 30 min; for Yeast counts at min: 60: 60 min
[6] = tested on: spores of Bacillus anthracis Sterne; type: cell-based, Bacillus anthracis Sterne (34F2)
[7] = tested on: S. typhimurium DT 104; type: cell-based, Salmonella typhimurium DT104; conditions: water, 21° C.
[8] = tested on: L. monocytogenes; type: cell-based, Listeria monocytogenes; conditions: 21° C.

CC(=O)O [0.5% acetic acid, acetic acid]
S. enteritidis counts ([1]; water, 21° C., 0 min): 7.1 log CFU/ml
S. enteritidis counts ([1]; water, 21° C., 2 min): 7.0 log CFU/ml
S. enteritidis counts ([1]; water, 21° C., 5 min): 6.8 log CFU/ml
S. enteritidis counts ([1]; water, 21° C., 10 min): 6.7 log CFU/ml
S. enteritidis counts ([1]; water, 21° C., 20 min): 6.6 log CFU/ml
S. enteritidis counts ([1]; water, 21° C., 30 min): 6.5 log CFU/ml

acidified sodium chlorite [50 ppm acidified sodium chlorite]
reduction of APC on onions [2]: < 0.5 log CFU per onion
reduction of S. typhimurium on onions [3]: < 0.5 log CFU per onion
reduction of yeast and mold counts on onions [4]: < 0.5 log CFU per onion

CC(=O)CCC(=O)O [2.0% levulinic acids]
Yeast counts at min: 1 ([5]; Candida magnoliae): 5.9 log CFU/ml
Yeast counts at min: 2 ([5]; Candida magnoliae): 5.9 log CFU/ml
Yeast counts at min: 5 ([5]; Candida magnoliae): 5.9 log CFU/ml
Yeast counts at min: 10 ([5]; Candida magnoliae): 6.0 log CFU/ml
Yeast counts at min: 20 ([5]; Candida magnoliae): 6.0 log CFU/ml
Yeast counts at min: 30 ([5]; Candida magnoliae): 5.9 log CFU/ml
Yeast counts at min: 60 ([5]; Candida magnoliae): 5.8 log CFU/ml

CCCCCCCCCCCCOS(=O)(=O)[O-].[Na+] [1.0% SDS]
Yeast counts at min: 1 ([5]; Candida magnoliae): 3.5 log CFU/ml
Yeast counts at min: 2 ([5]; Candida magnoliae): 3.3 log CFU/ml
Yeast counts at min: 5 ([5]; Candida magnoliae): 3.2 log CFU/ml
Yeast counts at min: 10 ([5]; Candida magnoliae): 3.2 log CFU/ml
Yeast counts at min: 20 ([5]; Candida magnoliae): 2.7 log CFU/ml
Yeast counts at min: 30 ([5]; Candida magnoliae): 3.0 log CFU/ml
Yeast counts at min: 60 ([5]; Candida magnoliae): 3.1 log CFU/ml
Yeast counts at min: 1 ([5]; Debaryomyces hansenii): 4.5 log CFU/ml
Yeast counts at min: 2 ([5]; Debaryomyces hansenii): 4.1 log CFU/ml
Yeast counts at min: 5 ([5]; Debaryomyces hansenii): 4.5 log CFU/ml
Yeast counts at min: 10 ([5]; Debaryomyces hansenii): 4.4 log CFU/ml
Yeast counts at min: 20 ([5]; Debaryomyces hansenii): 4.5 log CFU/ml
Yeast counts at min: 30 ([5]; Debaryomyces hansenii): 4.5 log CFU/ml
Yeast counts at min: 60 ([5]; Debaryomyces hansenii): 4.4 log CFU/ml
Yeast counts at min: 1 ([5]; Geotrichum candidum): 3.8 log CFU/ml
Yeast counts at min: 2 ([5]; Geotrichum candidum): 3.3 log CFU/ml
Yeast counts at min: 5 ([5]; Geotrichum candidum): 3.5 log CFU/ml
Yeast counts at min: 10 ([5]; Geotrichum candidum): 3.7 log CFU/ml
Yeast counts at min: 20 ([5]; Geotrichum candidum): 3.5 log CFU/ml
Yeast counts at min: 30 ([5]; Geotrichum candidum): 3.4 log CFU/ml
Yeast counts at min: 60 ([5]; Geotrichum candidum): 3.3 log CFU/ml
Yeast counts at min: 1 ([5]; Saccharomyces cerevisiae): 2.4 log CFU/ml
Yeast counts at min: 2 ([5]; Saccharomyces cerevisiae): 2.6 log CFU/ml
Yeast counts at min: 5 ([5]; Saccharomyces cerevisiae): 2.3 log CFU/ml
Yeast counts at min: 10 ([5]; Saccharomyces cerevisiae): 2.8 log CFU/ml
Yeast counts at min: 20 ([5]; Saccharomyces cerevisiae): 2.7 log CFU/ml
Yeast counts at min: 30 ([5]; Saccharomyces cerevisiae): 2.3 log CFU/ml
Yeast counts at min: 60 ([5]; Saccharomyces cerevisiae): 2.4 log CFU/ml
Yeast counts at min: 1 ([5]; Zygosaccharomyces bailii): 4.7 log CFU/ml
Yeast counts at min: 2 ([5]; Zygosaccharomyces bailii): 4.6 log CFU/ml
Yeast counts at min: 5 ([5]; Zygosaccharomyces bailii): 4.6 log CFU/ml
Yeast counts at min: 10 ([5]; Zygosaccharomyces bailii): 4.6 log CFU/ml
Yeast counts at min: 20 ([5]; Zygosaccharomyces bailii): 4.5 log CFU/ml
Yeast counts at min: 30 ([5]; Zygosaccharomyces bailii): 4.5 log CFU/ml
Yeast counts at min: 60 ([5]; Zygosaccharomyces bailii): 4.4 log CFU/ml

CCCCCCCCCCCCOS(=O)(=O)[O-].[Na+] [SDS, sodium dodecyl sulfate]
Salmonella reduction [1]: did not reduce
S. enteritidis counts ([1]; sulfate): 7.1 log CFU/ml and 7.0 log CFU/ml and 7.2 log CFU/ml
CFU % recovery (as compared to control flask F) ([6]; Experiment A3, 10 min): 65%
CFU % recovery (as compared to control flask F) ([6]; Experiment A3, 45 min): 94%
CFU % recovery (as compared to control flask F) ([6]; Experiment A3, 180 min): 95%
CFU % recovery (as compared to control flask F) ([6]; Experiment A4 absent heat, RT, 0 min): 85%
CFU % recovery (as compared to control flask F) ([6]; Experiment A4 absent heat, RT, 1 h): 90%
CFU % recovery (as compared to control flask F) ([6]; Experiment A4 absent heat, RT, 2 h): 87%
CFU % recovery (as compared to control flask F) ([6]; Experiment A4 absent heat, RT, 3 h): 98%
CFU % recovery (as compared to control flask F) ([6]; Experiment A4 absent heat, RT, 4 h): 79%
CFU % recovery (as compared to control flask F) ([6]; Experiment A4 with heat, 65° C., 0 min): 48%
CFU % recovery (as compared to control flask F) ([6]; Experiment A4 with heat, 65° C., 1 h): 53%
CFU % recovery (as compared to control flask F) ([6]; Experiment A4 with heat, 65° C., 2 h): 74%
CFU % recovery (as compared to control flask F) ([6]; Experiment A4 with heat, 65° C., 3 h): 68%
CFU % recovery (as compared to control flask F) ([6]; Experiment A5 with heat, 65° C., 0 min): 71%
CFU % recovery (as compared to control flask F) ([6]; Experiment A5 with heat, 65° C., 1 h): 69%
CFU % recovery (as compared to control flask F) ([6]; Experiment A5 with heat, 65° C., 2 h): 53%
CFU % recovery (as compared to control flask F) ([6]; Experiment A5 with heat, 65° C., 3 h): 71%
CFU % recovery (as compared to control flask F) ([6]; Experiment A5 with heat, 65° C., 4 h): 54%
S. typhimurium DT 104 counts ([7]; 0 min): 7.0 log CFU/ml
S. typhimurium DT 104 counts ([7]; 1 min): 7.0 log CFU/ml
S. typhimurium DT 104 counts ([7]; 2 min): 6.8 log CFU/ml
S. typhimurium DT 104 counts ([7]; 5 min): 6.9 log CFU/ml
S. typhimurium DT 104 counts ([7]; 10 min): 6.8 log CFU/ml
S. typhimurium DT 104 counts ([7]; 20 min): 6.9 log CFU/ml
S. typhimurium DT 104 counts ([7]; 30 min): 6.9 log CFU/ml
S. typhimurium DT 104 counts ([7]; 60 min): 6.9 log CFU/ml
L. monocytogenes counts ([8]; 0 min): 6.6 ± 0.3 log CFU/ml
L. monocytogenes counts ([8]; 2 min): 6.4 ± 0.1 log CFU/ml
L. monocytogenes counts ([8]; 5 min): 6.0 ± 0.1 log CFU/ml
L. monocytogenes counts ([8]; 10 min): 5.0 ± 0.3 log CFU/ml
L. monocytogenes counts ([8]; 20 min): 3.8 ± 0.2 log CFU/ml
L. monocytogenes counts ([8]; 30 min): 3.3 ± 0.1 log CFU/ml

CC(=O)CCC(=O)O [2% levulinic acid]
Yeast counts at min: 1 ([5]; Zygosaccharomyces bailii): 5.4 log CFU/ml
Yeast counts at min: 2 ([5]; Zygosaccharomyces bailii): 5.5 log CFU/ml
Yeast counts at min: 5 ([5]; Zygosaccharomyces bailii): 5.4 log CFU/ml
Yeast counts at min: 10 ([5]; Zygosaccharomyces bailii): 5.4 log CFU/ml
Yeast counts at min: 20 ([5]; Zygosaccharomyces bailii): 5.4 log CFU/ml
Yeast counts at min: 30 ([5]; Zygosaccharomyces bailii): 5.4 log CFU/ml
Yeast counts at min: 60 ([5]; Zygosaccharomyces bailii): 5.3 log CFU/ml
